The source of these data is US20150125904A1, “PROBE INCORPORATION MEDIATED BY ENZYMES” (Massachusetts Institute of Technology, priority 2012, published 2015).

One data set deals with T1, W37TLplA (Escherichia coli, UniProt P32099, W38T).
T1 construct: His6; made in house; host or cells: E. coli (bacterial lysate, not purified)
The data set is described as follows: UPLC screening of LplA single mutants for Pacific Blue ligation. It counts as biochemical, E. coli. The conditions noted are these: after 12 hours, 500 μM probe. The procedure: In vitro ligation reactions were assembled as described in the main text with the following modifications. 5 μL bacterial lysate containing LplA was used in place of purified enzyme. Total reaction volume was 25 μL. Instead of LAP peptide, 150 μM purified E2p protein (see Uttamapinant, et al., 2010) was used. Reactions proceeded overnight at 30° C. with 500 μM probe. Ultra Performance Liquid Chromatography (UPLC) was used to detect any product formation. All products were confirmed by in-line mass spectrometry.

The nature of data set [1]: Photophysical properties, pKa and pH profiles of coumarin probes. It counts as physicochemical. The conditions noted are these: 150 μM solutions, pH 3-10 buffers. How it is done: Fluorescence emission was recorded for 150 μM solutions, using a TECAN Safire Microplate Reader and a plastic transparent-bottomed 384-well plate (Greiner). pH 3-6 buffers were prepared by mixing different ratios of 0.1M acetic acid and 0.1M sodium acetate-trihydrate solutions. pH 7-10 buffers were prepared by mixing different ratios of 0.1M Na2HPO4 and either 0.1M HCl (for pH 7-9 buffers) or 0.1M NaOH (for pH 10 buffer). Final pH adjustments in all buffer solutions were made by adding small amount of 1M HCl or 1M NaOH.

The target of data set [2] is T2, W37VLplA (Escherichia coli, UniProt P32099, W38V). Description: In vitro coumarin ligation onto LAP2 (HPLC). It counts as biochemical, E. coli. As to conditions: 500 μM coumarin probe, 2 μM W37VLplA, 55-minute reaction. How it is done:
Reactions were assembled as follows: 2 μM LplA enzyme, 150 μM LAP2 synthetic peptide (sequence: […]; see Puthenveetil et al., J. Am. Chem. Soc. 2009, 131 16430-16438), 500 μM 7-aminocoumarin 6 probe, 5 mM ATP, and 5 mM Mg(OAc)2 in 25 mM Na2HPO4 pH 7.2. The reaction mixture was incubated at 30° C. for 2 hours and quenched with EDTA (final concentration 100 mM). The mixture was analyzed on a Varian Prostar HPLC using a reverse-phase C18 Microsorb-MV 100 column (250×4.6 mm). Chromatograms were recorded at 210 nm. We used a 10-minute gradient of 30-60% acetonitrile in water with 0.1% trifluoroacetic acid under 1 mL/minute flow rate.
2 μM ^W37VLplA and 500 μM coumarin probe were used in one case. Aliquots from the reaction were collected and quenched with EDTA over 55 minutes. For the other case, 1 μM ^W37VLplA and 100 μM coumarin probe were used, and aliquots were collected and quenched over 70 minutes. After HPLC analysis, percent product conversions were calculated by dividing the product peak area by the sum of (product+starting material) peak areas.

The conditions of data set [3]: cited from earlier work.
In data set [4] the target is T2, W37VLplA. As to conditions: previously determined, cited from earlier work.
A further data set deals with Trp37→Ile LplA (Escherichia coli, UniProt P32099, W38I). The conditions noted are these: 30 min reaction, 500 μM probe; normalized to TCO2/Trp37→Val. How it is done:
(§1) LplA protein was purified as previously described2 and stored at −80° C. in 20 mM Tris-HCl, pH 7.5 supplementated with 10% v/v glycerol. Reactions were quenched with 30 mM EDTA (final concentration) and resolved by HPLC (Varian ProStar) on a C-18 column using a linear gradient of 25-60% acetonitrile in H2O (with 0.1% v/v trifluoroacetic acid) over 14 minutes. Species were detected at 210 nm absorbance. Peaks corresponding to LAP and its trans-cyclooctene adducts were confirmed by ESI mass spectrometry. The extent of conversion was calculated from ratios of peak areas, neglecting minor extinction coefficient changes to LAP due to trans-cyclooctene ligation.
(§2) The relative abilities of wild-type and mutant ligases to ligate TCO1-3 onto LplA acceptor peptide (LAP) were measured by an HPLC assay after 30 min. reaction time. […] Errors, ±1 s. d.

Data set [5] concerns the target Trp37→Val LplA (W37VLplA) (Escherichia coli, UniProt P32099, W38V). The conditions noted are these: 30 min reaction, 500 μM probe; normalized to TCO2/Trp37→Val. How it is done: as §1, §2
The target in another data set is Trp37→Gly LplA (Escherichia coli, UniProt P32099, W38G). The conditions noted are these: 30 min reaction, 500 μM probe; normalized to TCO2/Trp37→Val. The procedure: as §1, §2
In data set [6] the test system is LAP-LDL receptor on HEK cells. Description: Comparison of Diels-Alder cycloaddition, CuAAC and strain-promoted cycloaddition for cell surface fluorescence labeling. As to conditions: 3 min staining after TCO2 ligation. It counts as cell-based, human. The source says:
(A) HEK cells expressing LAP-LDL receptor and a nuclear cyan fluorescent protein transfection marker (shown in cyan, overlaid with DIC) were labeled in two steps, using three methodologies, as indicated by the scheme: Diels-Alder cycloaddition (left), CuAAC (middle), and strain-promoted cycloaddition (right). Fernandez-Suarez et al., Nature Biotechnology 2007, 25, 1483-1487. For the latter two, LAP was first derivatized with 8-azidooctanoic acid under conditions known to give quantitative yield. DIBO is dibenzylcyclooctyne. In all three cases, the second step was performed for 3 min., using the indicated Alexa 647 conjugates at the three indicated concentrations. Cells were imaged live after brief rinsing. Specific fluorescence staining with 1 μM DIBO-Alexa 647 was detectable (shown with enhanced contrast in inset). (B) Comparing cell viability after cell surface fluorescence labeling. Chinese hamster ovary cells expressing LAP-LDL receptor were labeled using Diels-Alder cycloaddition or CuAAC under the indicated conditions. Cell viability was then measured in triplicate, with untransfected and untreated cells defined as 100% viable. […]
These were previously determined, by subsequent lipoic acid pulse labeling, to give almost quantitative yield of 8-azidooctanoic acid ligation. […]

A short description of data set [7]: Photophysical properties of phycoerythrin and AlexaFluor 568. In kind it is physicochemical.

A word on the Km: it is the concentration of substrate that gives half-maximal velocity. One may read the kcat as the number of substrate molecules converted per active site and unit of time at saturation.

Like-named read-outs stand apart in the source and are kept apart here.

T2 sequence (P32099 2-338 W38V): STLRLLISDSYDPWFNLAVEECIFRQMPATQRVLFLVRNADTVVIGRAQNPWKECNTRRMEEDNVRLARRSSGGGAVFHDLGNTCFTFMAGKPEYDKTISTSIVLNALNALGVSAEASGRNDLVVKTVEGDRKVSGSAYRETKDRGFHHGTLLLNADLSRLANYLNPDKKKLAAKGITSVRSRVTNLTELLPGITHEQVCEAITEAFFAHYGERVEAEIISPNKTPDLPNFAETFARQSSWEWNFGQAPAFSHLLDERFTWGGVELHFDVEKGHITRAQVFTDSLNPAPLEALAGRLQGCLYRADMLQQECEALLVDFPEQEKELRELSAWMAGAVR
Trp37→Ile LplA, sequence (P32099 2-338 W38I): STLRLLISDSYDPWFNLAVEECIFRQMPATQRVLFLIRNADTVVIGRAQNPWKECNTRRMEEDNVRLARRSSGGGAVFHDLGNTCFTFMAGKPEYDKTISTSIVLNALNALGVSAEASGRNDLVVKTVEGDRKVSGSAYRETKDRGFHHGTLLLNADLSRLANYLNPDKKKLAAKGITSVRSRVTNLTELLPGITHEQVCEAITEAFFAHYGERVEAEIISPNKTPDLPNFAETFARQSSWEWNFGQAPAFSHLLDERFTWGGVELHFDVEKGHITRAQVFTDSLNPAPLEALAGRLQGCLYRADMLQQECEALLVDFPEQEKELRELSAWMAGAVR
Trp37→Val LplA (W37VLplA), sequence (P32099 2-338 W38V): as the sequence (P32099 2-338 W38V) above
T1 sequence (P32099 2-338 W38T): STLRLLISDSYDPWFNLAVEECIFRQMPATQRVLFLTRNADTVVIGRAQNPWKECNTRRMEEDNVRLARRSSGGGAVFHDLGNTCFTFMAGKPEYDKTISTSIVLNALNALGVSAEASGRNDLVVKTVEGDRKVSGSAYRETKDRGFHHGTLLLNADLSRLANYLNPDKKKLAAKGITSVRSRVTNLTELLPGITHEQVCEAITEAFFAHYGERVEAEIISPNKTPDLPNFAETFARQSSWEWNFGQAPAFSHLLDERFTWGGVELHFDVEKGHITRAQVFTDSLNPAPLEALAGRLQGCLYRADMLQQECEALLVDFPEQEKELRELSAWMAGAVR
Trp37→Gly LplA, sequence (P32099 2-338 W38G): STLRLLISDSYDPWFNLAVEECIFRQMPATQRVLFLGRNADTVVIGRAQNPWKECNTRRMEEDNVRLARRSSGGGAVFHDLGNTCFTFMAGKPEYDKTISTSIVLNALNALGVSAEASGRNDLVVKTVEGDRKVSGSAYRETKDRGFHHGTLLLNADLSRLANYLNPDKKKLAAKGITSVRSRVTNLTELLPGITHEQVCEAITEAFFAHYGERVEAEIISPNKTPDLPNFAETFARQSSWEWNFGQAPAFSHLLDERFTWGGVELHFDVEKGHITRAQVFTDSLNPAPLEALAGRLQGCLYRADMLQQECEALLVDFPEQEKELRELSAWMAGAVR

For “6,8-difluoro-7-hydroxycoumarin [Pacific Blue]”, the “conversion to ligation product” value on W37TLplA is on record as roughly 50%.

As to `O=C(O)CCCCNC(=O)c1cc2ccc(O)cc2oc1=O` [7-hydroxycoumarin 2], in [1], the “pH dependence of fluorescence” value is “drops sharply at pH values <6.5”. Also, at W37VLplA [2], the “LAP converted to product” value was 46%. Besides, in data set [3] (Sun, et al.), the emission maximum is listed as 448 nm, the excitation maximum is listed as 386 nm and the extinction coefficient is recorded as 36,700 M^−1 cm^−1. Moreover, the “pKa of 7-OH substituent” value in [3] is listed as 7.5. Moreover, at W37VLplA [4], the Km is 56 ± 20 µM and the kcat is 0.019 s⁻¹. For the same compound, the kcat at W37VLplA [4] (listed as HC4) is 0.019 ± 0.004 s⁻¹.

Take `O=C(O)CCCNC(=O)OC[C@H]1[C@@H]2CC/C=C/CC[C@@H]21` [TCO3, (rel-1R,8S,9R,4E)-Bicyclo[6.1.0]non-4-ene-9-ylmethyl-N-butyric acid carbamate]: the “Ligation efficiency (average, normalized product percentage), Trp37→Ile” value at Trp37→Ile LplA is 6.0 ± 0.6%. The “Ligation efficiency (average, normalized product percentage), Trp37→Val” value in [5] was found to be 6.6 ± 0.6%. The “Ligation efficiency (average, normalized product percentage), Trp37→Gly” value on Trp37→Gly LplA was found to be 22.6 ± 2.0%.

“Aminobenzyltetrazine Alexa Fluor 647 [Tz1-Alexa 647]”: the “dye concentration giving specific signal” value in data set [6] came to 10 nM.

As for R-phycoerythrin, the “brightness relative to AlexaFluor 568” value in data set [7] is listed as greater than 25 times.
